# From patent US20050181988A1, “Echinocandin cyclic peptide derivatives” (priority 2002, published 2005)
# Where two headings read alike, the source gives them in different places.
# Tested on: Candida albicans FP-633
# Experiment: In vitro antimicrobial activity: MICs in mouse serum by the microdilution method
# Type: cell-based
# Method: In vitro antimicrobial activity of the object compound of Example 23, 46, 58 and 63 disclosed later was determined by MICS in mouse serum as described below.
# The MICs in mouse serum were determined by the microdilution method using ICR mouse serum buffered with 20 mM HEPES buffer (pH 7.3) as a test medium. Inoculum suspension of 10^6 cells/ml were prepared by a hemocytometric procedure and diluted to obtain an inoculum size of approximately 1.0×10^3 cells/ml. Microplates were incubated at 37° C. for 24 hours in 5% CO2. The MICs was defined as the lowest concentrations at which no visible growth was observed.
Structure (SMILES),"MIC (FP633, 24 h, pH 7.3, read-out: MIC (μg/ml), Candida albicans FP-633)","MIC (FP633, microdilution in ICR mouse serum buffered with 20 mM HEPES (pH 7.3), inoculum approx. 1.0×10^3 cells/ml, 37° C., 24 hours, 5% CO2, lowest concentration with no visible growth, read-out: MIC (μg/ml), Candida albicans FP-633)"
CCOCCOc1ccc(-c2ccc(-c3nnc(-c4ccc(C(=O)N[C@H]5C[C@@H](O)CNC(=O)[C@@H]6[C@@H](O)[C@@H](C)CN6C(=O)[C@H]([C@H](O)CCN)NC(=O)[C@H]([C@H](O)Cc6ccc(O)c(OCCCN)c6)NC(=O)[C@@H]6C[C@@H](O)CN6C(=O)[C@H]([C@@H](C)O)NC5=O)cc4)s3)cc2)cc1 [Example 46],< 0.2 µg/mL,–
C[C@@H](O)[C@@H]1NC(=O)[C@@H](NC(=O)c2ccc(-c3nnc(-c4ccc(N5CCN([C@H]6CC[C@@H](C)CC6)CC5)nc4)s3)cc2)C[C@@H](O)CNC(=O)[C@@H]2[C@@H](O)[C@@H](C)CN2C(=O)[C@H]([C@H](O)CCN)NC(=O)[C@H]([C@H](O)Cc2ccc(O)c(OCCN)c2)NC(=O)[C@@H]2C[C@@H](O)CN2C1=O [Example 58],–,< 0.2 µg/mL
